US10703724B2, “Crystalline forms of {[5-(3-chlorophenyl)-3-hydroxypyridine-2-carbonyl] amino} acetic acid and processes for preparation thereof” (Crystal Pharmaceutical (Suzhou) Co., Ltd., priority 2016, dated 2020)
≈ marks a conversion by molar mass, not a printed value. Entries after “also recorded” stand apart in the source; their conditions may differ. Each block holds one molecule with its values, some of them ahead of it.

Legend:
[1] = Solubility in SGF (suspension rotated, filtrate concentration by HPLC); format: physicochemical; details: for Solubility in SGF: SGF (simulated gastric fluids); for solubility in SGF compared with Form A in WO2015073779: SGF at 1 h, 4 h and 24 h
Method: Certain amount of Form CS1 in the present disclosure and Form A in WO2015073779 were weighted into vials and suspended in SGF (Simulated Gastric Fluids). The systems were rotated on the rotator at a rate of 25 r/min. After equilibrated for 1 h, 4 h and 24 h, the suspension was separated through 0.45 μm PTFE centrifugal filter and the filtrate was collected. The concentration of the filtrates was measured by HPLC.
(§1) Certain amount of Form CS8 in the present disclosure and Form A in WO2015073779 was weighted into vials and then suspended in SGF (Simulated gastric fluids) and water. The systems were rotated on the rotator at a rate of 25 r/min. After equilibrated for 1 h, 4 h and 24 h, the suspension was separated through 0.45 μm PTFE centrifugal filter and the filtrate was collected. The concentration of the filtrates was measured by HPLC.

[2] = Stability comparison experiment: slurry in water at room temperature, about 40 days; format: physicochemical
Method: Stability comparison experiment: about 4 mg of Form CS2 and Form A in WO2015073779 was weighted into a 1.5 mL glass vial and 1.0 mL of water was added into the vial. The solid form of the initial sample was tested. After stirring at a rate of 500 r/min at room temperature for about 40 days, the solid form of the sample was tested again. The XRPD pattern overlay is depicted in FIG. 13.

[3] = as disclosed in WO2015073779; cited from earlier work
[4] = Storage stability of the crystalline form (XRPD before and after storage); format: physicochemical; details: for Solid Form after storage: XRPD
Method: Form CS1 in the present disclosure was stored under 25° C./60% RH and 40° C./75% RH for 1 month. The XRPD pattern was collected before and after storage, and the XRPD pattern overlay is depicted in FIG. 10.
Accelerated experiment: Form CS2 was stored under 25° C./60% RH, 40° C./75% RH and 60° C./75% RH for 1 month. The XRPD pattern was collected before and after storage, and the overlay is depicted in FIG. 11.
Form CS8 of the present disclosure was stored under 25° C./60% RH, 40° C./75% RH and 60° C./75% RH for 20 days.

[5] = Pressure stability: tableting under 3 KN, 7 KN and 14 KN, XRPD before and after; format: physicochemical; details: 7 KN and 14 KN pressure
Description: Form CS2 was compressed using an ENERPAC manual tablet press under 3 KN, 7 KN and 14 KN pressure with φ6 mm round tooling (to ensure isotropy of the tablet). XRPD pattern overlay depicted in FIG. 15 was collected by a […] Panalytical Empyrean X-ray diffractometer before and after tableting.

[6] = Hygroscopicity by dynamic vapor sorption (DVS); format: physicochemical
Method: Dynamic Vapor Sorption (DVS) was measured via an SMS (Surface Measurement Systems Ltd.) intrinsic DVS instrument. Its control software is DVS-Intrinsic control software, and its analysis software is DVS-Intrinsic Analysis software. Typical Parameters for DVS test are as follows: • Temperature: 25° C. • Gas and flow rate: N2, 200 mL/min • dm/dt: 0.002%/min • RH range: 0% RH to 95% RH
Dynamic vapor sorption (DVS) was applied to test hygroscopicity of Form CS2 with 10 mg of sample.
Dynamic vapor sorption (DVS) was applied to test hygroscopicity of Form CS8 with 10 mg of sample and the DVS curve is depicted in FIG. 14. The weight gain of Form CS8 under 80% RH is 0.06%, which means Form CS8 is non hygroscopic or almost non hygroscopic.
Description and definition of hygroscopicity in the general principle 9103 of Chinese Pharmacopoeia: • deliquescent: Sufficient water is absorbed to form a liquid; • very hygroscopic: Increase in mass is equal to or greater than 15 percent; • hygroscopic: Increase in mass is less than 15 percent and equal to or greater than 2 percent; • slightly hygroscopic: Increase in mass is less than 2 percent and equal to or greater than 0.2 percent. • non hygroscopic or almost non hygroscopic: Increase in mass is less than 0.2%.

[7] = Mechanical stability experiment: manual grinding for 5 minutes in a mortar; format: physicochemical; details: XRPD
Method: Mechanical stability experiment: Form CS2 was manually ground for 5 minutes in a mortar. The XRPD pattern collected before and after grinding is depicted in FIG. 12.

[8] = Solubility in water (suspension rotated, filtrate concentration by HPLC); format: physicochemical
Method: as §1

[9] = 25° C./60% RH, 40° C./75% RH and 60° C./75% RH

SMILES: O=C(O)CNC(=O)c1ncc(-c2cccc(Cl)c2)cc1O [Form A in WO2015073779, {[5-(3-chlorophenyl)-3-hydroxypyridine-2-carbonyl]amino} acetic acid, reference compound]
Solubility in SGF ([1]; equilibrated 1 h): 8.5 µg/mL (≈ 27.7 µM)
Solubility in SGF ([1]; equilibrated 4 h): 8.6 µg/mL (≈ 28 µM)
Solubility in SGF ([1]; equilibrated 24 h): 3.8 µg/mL (≈ 12.4 µM)
solid form after slurry in water ([2]; water, 500 r/min, room temperature, XRPD): almost completely converted to Form CS2

SMILES: O=C(O)CNC(=O)c1ncc(-c2cccc(Cl)c2)cc1O [Form B, {[5-(3-chlorophenyl)-3-hydroxypyridine-2-carbonyl]amino} acetic acid]
conversion in slurry at high temperature [3]: may convert to Form A

Now from value to molecule, other results behind:

time the form keeps stable ([4]; 25° C./60% RH and 40° C./75% RH): at least 1 month
Solid Form after storage ([4]; 25° C./60% RH, 1 month): Form CS1, no form change
Solid Form after storage ([4]; 40° C./75% RH, 1 month): Form CS1, no form change
Solubility in SGF ([1]; equilibrated 1 h): 23 µg/mL (≈ 75 µM)
Solubility in SGF ([1]; equilibrated 4 h): 26 µg/mL (≈ 84.8 µM)
Solubility in SGF ([1]; equilibrated 24 h): 19 µg/mL (≈ 61.9 µM)
solubility in SGF compared with Form A in WO2015073779 [1]: higher
SMILES: O=C(O)CNC(=O)c1ncc(-c2cccc(Cl)c2)cc1O [Form CS1, {[5-(3-chlorophenyl)-3-hydroxypyridine-2-carbonyl]amino} acetic acid]

form change after tableting [5]: no form change; also recorded: stable
Solid Form after storage ([4]; 25° C./60% RH, 1 month): Form CS2, no form change
time the form keeps stable [4, 9]: at least 1 month
Solid Form after storage ([4]; 25° C./60% RH, 20 days): Form CS8, no form change
Solid Form after storage ([4]; 40° C./75% RH, 1 month): Form CS2, no form change
Solid Form after storage ([4]; 40° C./75% RH, 20 days): Form CS8, no form change
Solid Form after storage ([4]; 60° C./75% RH, 1 month): Form CS2, no form change
Solid Form after storage ([4]; 60° C./75% RH, 20 days): Form CS8, no form change
weight gain from 40% RH to 80% RH ([6]; DVS, 25° C., 10 mg of sample): 0.11%
hygroscopicity (in words) ([6]; from weight gain 40% RH to 80% RH): low hygroscopic
stability in water compared with Form A in WO2015073779 ([2]; slurry in water): more stable
crystal structure after manual grinding [7]: doesn't change
SMILES: O=C(O)CNC(=O)c1ncc(-c2cccc(Cl)c2)cc1O [Form CS2, {[5-(3-chlorophenyl)-3-hydroxypyridine-2-carbonyl]amino} acetic acid]

time the form keeps stable [4, 9]: at least 20 days
Solubility in SGF ([1]; equilibrated 1 h): 20 µg/mL (≈ 65.2 µM)
Solubility in SGF ([1]; equilibrated 4 h): 22 µg/mL (≈ 71.7 µM)
Solubility in SGF ([1]; equilibrated 24 h): 33 µg/mL (≈ 108 µM)
solubility in SGF compared with Form A in WO2015073779 [1]: higher
weight gain at 90% RH ([6]; DVS, 25° C.): 0.08%
weight gain at 80% RH ([6]; DVS, 25° C., 10 mg of sample): 0.06%
solubility in water compared with Form A in WO2015073779 [8]: higher
SMILES: O=C(O)CNC(=O)c1ncc(-c2cccc(Cl)c2)cc1O [Form CS8, {[5-(3-chlorophenyl)-3-hydroxypyridine-2-carbonyl]amino} acetic acid]
hygroscopicity class (Chinese Pharmacopoeia general principle 9103) ([6]; from weight gain under 80% RH): non hygroscopic or almost non hygroscopic (Increase in mass is less than 0.2%)
